Source: ChEMBL document CHEMBL1149255, “An in silico approach to discovering novel inhibitors of human sirtuin type 2” (J Med Chem, 2004)

Molecular target: T1, NAD-dependent protein deacetylase sirtuin-2 (Homo sapiens, UniProt Q8IXJ6)
T1 sequence (Q8IXJ6 whole entry): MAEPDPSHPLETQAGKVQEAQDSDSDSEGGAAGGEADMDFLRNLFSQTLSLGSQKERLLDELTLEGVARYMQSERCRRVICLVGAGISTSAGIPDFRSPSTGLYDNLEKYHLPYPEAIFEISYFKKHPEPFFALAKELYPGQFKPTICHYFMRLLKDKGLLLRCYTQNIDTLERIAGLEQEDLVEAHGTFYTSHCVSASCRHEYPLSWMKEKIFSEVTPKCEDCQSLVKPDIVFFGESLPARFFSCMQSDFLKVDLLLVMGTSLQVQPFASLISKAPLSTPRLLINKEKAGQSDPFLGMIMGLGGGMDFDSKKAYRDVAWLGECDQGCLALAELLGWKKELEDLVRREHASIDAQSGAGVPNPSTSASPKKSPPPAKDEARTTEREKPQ
Assay: Inhibition of human recombinant GST-tagged SIRT2 by histone deacetylase assay

| SMILES | IC50 [µM] |
| --- | --- |
| Oc1ccccc1/C=N/c1ccc(OCCCCOc2ccc(/N=C/c3ccccc3O)cc2)cc1 | > 1000 |
| COc1cc(NC(=O)c2ccccc2)c(C)cc1NC(=O)CC(CC(=O)O)c1ccccc1 (stereo not given) | > 1000 |
| O=C(O)/C=C/C(=O)Nc1cccc(NC(=O)c2ccccc2O)c1 | > 1000 |
| Oc1ccccc1/C=N/c1ccc(OCCCOc2ccc(/N=C/c3ccccc3O)cc2)cc1 | > 1000 |
| O=C(O)CCCCOc1ccc2oc3ccccc3c(=O)c2c1 | > 1000 |
| Cc1ncc(CSc2ccccc2/N=C/c2cc(Cl)cc(Cl)c2O)c(CO)c1O | 74.3 |
| O=C(O)CSCC(=O)N1CCN(c2cc(C(F)(F)F)nc3ccccc23)CC1 | > 1000 |
| O=c1cc(CSc2n[nH]c(=O)n2C2Cc3ccccc3C2)c2ccc(O)cc2o1 | > 300 |

The remaining lines, values ahead:

| IC50 [µM] | SMILES |
| --- | --- |
| > 300 | Oc1ccc(CCc2nnc(S)n2-c2ccc(Cl)cc2)cc1 |
| > 1000 | CN(CCO)c1ccc(C(=O)c2ccc(N(C)CCO)cc2)cc1 |
| > 1000 | O=C1c2cccc3c(SCCO)ccc(c23)C(=O)N1CCc1ccccn1 |
| > 300 | O=C(Nc1ccc(COc2ccccc2)cc1)Nc1cccc(C(=O)O)c1 |
| > 1000 | Oc1ccc(/C=N/c2ccc(Cc3ccc(/N=C/c4ccc(O)c(O)c4)cc3)cc2)cc1O |
| 56.7 | O=C1c2ccccc2C(=O)c2c(NCCc3ccc(O)cc3)ccc(NCCc3ccc(O)cc3)c21 |
| > 1000 | CC(C)(C)OC(=O)NC(Cc1ccccc1)C(=O)OCc1ccc(CC(=O)O)cc1 (stereo not given) |
